The subject of assay [1] is MYB mRNA. Nature of the assay: RT-qPCR splicing assay, MYB canonical junction (CJ) and alternative junction (AJ) mRNA. It is filed as cell-based, human. The settings on record: Homo sapiens; for AC50: increase in MYB alternative junction (AJ) mRNA, read-out: MYB AJ AC50. The procedure, abridged:
(§1)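 Following a 24-hour incubation of A673 or K562 cells with serially diluted compound (3-fold steps, highest final 10 uM), the lysates undergo cDNA synthesis plus qPCR. Canonical and alternative junctions are each quantified against PPIA, GAPDH or GUSB.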
A general note: Quantitative PCR measures a nucleic acid by following its amplification.

For assay [2], the system named is HTT mRNA. Nature of the assay: RT-qPCR splicing assay, HTT canonical junction (CJ) and alternative junction (AJ) mRNA. It counts as cell-based, human. To be noted: Homo sapiens; for AC50: increase in HTT alternative junction (AJ) mRNA, read-out: HTT AJ AC50. The procedure, abridged:
as §1

Setting [3] is: Table 5 panel, canonical junction qPCR, compound concentration having 50% response in CJ decrease, read-out: MYB IC50 (decrease in CJ mRNA levels).
Where [4] appears, read: decrease in MYB canonical junction (CJ) mRNA, RT-qPCR, read-out: MYB CJ IC50.
The mark [5] stands for this setting: decrease in HTT canonical junction (CJ) mRNA, RT-qPCR, read-out: HTT CJ IC50.
The mark [6] stands for this setting: Table 5 panel, canonical junction qPCR, compound concentration having 50% response in CJ decrease, read-out: HTT IC50 (decrease in CJ mRNA levels).

Where a name gives a salt, the structure may show the parent alone. Read-outs that look alike come from different tables or passages of the source. A value given as a limit tells only on which side of the number the result lay.

In general, IC50 refers to the concentration needed to halve the response being measured. Broadly, the AC50 is the concentration giving half of the maximal activity seen.

For `Cc1cc(-c2ccc3c(=O)n(N4CCN(C)CC4)cnc3c2)cc2cn(C)nc12` [Compound 175], the IC50 in assay [1] (setting [3]), in assay [1] (setting [4]), in assay [2] (setting [5]) and in assay [2] (setting [6]) was 1 to 10 µM in each case. The values for the AC50 in assay [1] (RT-qPCR) and in assay [2] (RT-qPCR) were 1 to 10 µM and more than 10 µM, respectively.
For the compound `Cc1cn2nc(-c3ccc4c(=O)n(C5CCN(C)CC5)cnc4c3)cc(C)c2n1` [Compound 176], the IC50 in assay [1] (setting [3]) was in the range of 0.1 to 1 µM; in assay [1] (setting [4]), 1 to 10 µM; in assay [2] (setting [5]), 1 to 10 µM; in assay [2] (setting [6]) it was 1 to 10 µM. Besides, the figures for the AC50 in assay [1] (RT-qPCR) and in assay [2] (RT-qPCR) were 0.1 to 1 µM and 1 to 10 µM, respectively.
For the compound `CN1CCC(c2ccc3c(=O)n(-c4ccc5nn(C)cc5c4)cnc3c2)CC1` [Compound 177], the IC50 in assay [1] (setting [3]), in assay [1] (setting [4]), in assay [2] (setting [5]) and in assay [2] (setting [6]) was more than 10 µM in each case. For the same compound, the AC50 in assay [1] (RT-qPCR) and in assay [2] (RT-qPCR) was more than 10 µM each time.
As to `CN1CCN(c2ccc3c(=O)n(-c4ccc5cn(C)nc5c4)cnc3c2)CC1` [Compound 178], the IC50 in assay [1] (setting [3]), in assay [1] (setting [4]), in assay [2] (setting [5]) and in assay [2] (setting [6]) was more than 10 µM in each case. In addition, the AC50 in assay [1] (RT-qPCR) and in assay [2] (RT-qPCR) was more than 10 µM in each case.
Take `Cc1cc(-c2ccc3c(=O)n(C4CC(C)(C)NC(C)(C)C4)cnc3n2)cc2cn(C)nc12` [Compound 179]: the IC50 in assay [1] (setting [3]), in assay [1] (setting [4]), in assay [2] (setting [5]) and in assay [2] (setting [6]) was more than 10 µM each time. In addition, the AC50 in assay [1] (RT-qPCR) and in assay [2] (RT-qPCR) was more than 10 µM each time.
Regarding `CN(c1ccc2c(=O)n(-c3ccc4nn(C)cc4c3)cnc2c1)C1CCNCC1` [Compound 180], the IC50 in assay [1] (setting [3]), in assay [1] (setting [4]), in assay [2] (setting [5]) and in assay [2] (setting [6]) was more than 10 µM in each case. Besides, the AC50 in assay [1] (RT-qPCR) and in assay [2] (RT-qPCR) was more than 10 µM in each case.
For the compound `Cc1cn2nc(-c3ccc4c(=O)n(C5CCNCC5)cnc4c3)cc(C)c2n1` [Compound 181], the IC50 in assay [1] (setting [3]), in assay [1] (setting [4]), in assay [2] (setting [5]) and in assay [2] (setting [6]) was 0.1 to 1 µM each time. For the same compound, the AC50 in assay [1] (RT-qPCR) and in assay [2] (RT-qPCR) was 0.1 to 1 µM throughout.
For the compound `Cc1cc(-c2ccc3c(=O)n(C4CCNC5(CC5)C4)ncc3c2)cc2cn(C)nc12` (stereo not drawn) [Compound 512], the 50% inhibitory concentration (IC50) in assay [1] (setting [3]) was in the range of 1 to 10 µM; in assay [1] (setting [4]) it was 1 to 10 µM; in assay [2] (setting [5]) it was 1 to 10 µM; in assay [2] (setting [6]) it was 0.1 to 1 µM. Besides, the AC50 was 1 to 10 µM in assay [1] (RT-qPCR) and 0.1 to 1 µM in assay [2] (RT-qPCR).
On to `Cc1nc2c(C)cc(-c3ccc4c(=O)n(C5CCNC6(CC6)C5)ncc4c3)cc2o1` (stereo not drawn) [Compound 513], for which the IC50 in assay [1] (setting [3]) is 1 to 10 µM; in assay [1] (setting [4]) it was 1 to 10 µM; in assay [2] (setting [5]) it was 0.1 to 1 µM; in assay [2] (setting [6]), 0.1 to 1 µM. The AC50 in assay [1] (RT-qPCR) was 1 to 10 µM; in assay [2] (RT-qPCR) it was 0.1 to 1 µM.
On to `COc1cc(-c2ccc3c(=O)n(C4CCNCC4)ccc3c2)nn2cc(C)nc12` [Compound 514, 6-(8-methoxy-2-methyl-imidazo[1,2-b]pyridazin-6-yl)-2-(4-piperidyl) isoquinolin-1-one; hydrochloride], for which the IC50 in assay [1] (setting [3]), in assay [1] (setting [4]), in assay [2] (setting [5]) and in assay [2] (setting [6]) was less than 0.1 µM each time. The AC50 in assay [1] (RT-qPCR) and in assay [2] (RT-qPCR) was less than 0.1 µM in each case.
For the compound `Cc1cn2nc(-c3ccc4c(=O)n(C5CCN(CCF)CC5)ncc4c3)cc(C)c2n1` [Compound 515], the IC50 fell in the range of 1 to 10 µM in assay [1] (setting [3]), 0.1 to 1 µM in assay [1] (setting [4]), 0.1 to 1 µM in assay [2] (setting [5]) and 0.1 to 1 µM in assay [2] (setting [6]). The AC50 in assay [1] (RT-qPCR) was 1 to 10 µM; in assay [2] (RT-qPCR) it was 0.1 to 1 µM.
`Cc1cn2nc(-c3ccc4c(=O)n(C5CCNCC5)ccc4c3)cc(C(=O)O)c2n1` [Compound 516, 2-methyl-6-[1-oxo-2-(4-piperidyl)-6-isoquinolyl]imidazo[1,2-b]pyridazine-8-carboxylic acid]: the IC50 in assay [1] (setting [3]), in assay [1] (setting [4]), in assay [2] (setting [5]) and in assay [2] (setting [6]) was 1 to 10 µM throughout. Moreover, the AC50 in assay [1] (RT-qPCR) and in assay [2] (RT-qPCR) was 1 to 10 µM in each case.
In the case of `COC(=O)c1cc(-c2ccc3c(=O)n(C4CCNCC4)ccc3c2)nn2cc(C)nc12` [Compound 517, methyl 2-methyl-6-[1-oxo-2-(4-piperidyl)-6-isoquinolyl]imidazo[1,2-b]pyridazine-8-carboxylate], the IC50 is 0.1 to 1 µM in assay [1] (setting [3]), 0.1 to 1 µM in assay [1] (setting [4]), 1 to 10 µM in assay [2] (setting [5]) and 1 to 10 µM in assay [2] (setting [6]). Also, the values for the AC50 in assay [1] (RT-qPCR) and in assay [2] (RT-qPCR) were 0.1 to 1 µM and 1 to 10 µM, respectively.
In the case of `CNC(=O)c1cc(-c2ccc3c(=O)n(C4CCNCC4)ccc3c2)nn2cc(C)nc12` [Compound 518, N, 2-dimethyl-6-[1-oxo-2-(4-piperidyl)-6-isoquinolyl]imidazo[1,2-b]pyridazine-8-carboxamide], the IC50 in assay [1] (setting [3]) is 1 to 10 µM; in assay [1] (setting [4]), more than 10 µM; in assay [2] (setting [5]) it was more than 10 µM; in assay [2] (setting [6]), more than 10 µM. Besides, the results for the AC50 in assay [1] (RT-qPCR) and in assay [2] (RT-qPCR) were 1 to 10 µM and more than 10 µM, respectively.
Consider `Cc1cn2nc(-c3ccc4c(=O)n(C5CCNCC5)ccc4c3)cc(Oc3ccccc3)c2n1` [Compound 519, 6-(2-methyl-8-phenoxy-imidazo[1,2-b]pyridazin-6-yl)-2-(4-piperidyl)isoquinolin-1-one], for which the IC50 in assay [1] (setting [3]), in assay [1] (setting [4]), in assay [2] (setting [5]) and in assay [2] (setting [6]) was less than 0.1 µM each time. Further, the AC50 in assay [1] (RT-qPCR) and in assay [2] (RT-qPCR) was less than 0.1 µM throughout.
As to `Cc1cn2nc(-c3ccc4c(=O)n(C5CCNCC5)ccc4c3)cc(CC#N)c2n1` [Compound 520, 2-[2-methyl-6-[1-oxo-2-(4-piperidyl)-6-isoquinolyl]imidazo[1,2-b]pyridazin-8-yl]acetonitrile], the IC50 in assay [1] (setting [3]), in assay [1] (setting [4]), in assay [2] (setting [5]) and in assay [2] (setting [6]) was 0.1 to 1 µM each time. Besides, the AC50 in assay [1] (RT-qPCR) and in assay [2] (RT-qPCR) was 0.1 to 1 µM each time.
Regarding `Cn1ccc2c(cnn2-c2ccc3c(=O)n(C4CCNCC4)ccc3c2)c1=O` [Compound 521], the IC50 in assay [1] (setting [3]), in assay [1] (setting [4]), in assay [2] (setting [5]) and in assay [2] (setting [6]) was 1 to 10 µM throughout. For the same compound, the AC50 in assay [1] (RT-qPCR) and in assay [2] (RT-qPCR) was 1 to 10 µM throughout.
As to `Cn1ccc2nn(-c3ccc4c(=O)n(C5CCNCC5)ccc4c3)cc2c1=O` [Compound 522, 6-{5-methyl-4-oxopyrazolo[4,3-c]pyridin-2-yl}-2-(piperidin-4-yl)isoquinolin-1-one], the IC50 in assay [1] (setting [3]), in assay [1] (setting [4]), in assay [2] (setting [5]) and in assay [2] (setting [6]) was more than 10 µM throughout. Also, the AC50 in assay [1] (RT-qPCR) and in assay [2] (RT-qPCR) was more than 10 µM in each case.
`Cc1cn2nc(-c3ccc4c(=O)n(C5CCNCC5)ccc4c3)cc(C(N)=O)c2n1` [Compound 523, 2-methyl-6-[1-oxo-2-(4-piperidyl)-6-isoquinolyl]imidazo[1,2-b]pyridazine-8-carboxamide]: the IC50 in assay [1] (setting [3]) was 1 to 10 µM; in assay [1] (setting [4]), 1 to 10 µM; in assay [2] (setting [5]), 1 to 10 µM; in assay [2] (setting [6]), more than 10 µM. In addition, the AC50 is 1 to 10 µM in assay [1] (RT-qPCR) and more than 10 µM in assay [2] (RT-qPCR).

The record behind these values is patent US20250332173A1, “COMPOUNDS AND METHODS FOR MODULATING NUCLEIC ACID SPLICING” (REMIX THERAPEUTICS INC., priority 2021, published 2025).
